From PMC5564715, “Acetyl-CoA carboxylase inhibitors attenuate WNT and Hedgehog signaling and suppress pancreatic tumor growth” (Oncotarget, 2016) come the findings set out here.

One assay deals with T1, ACC1 (Homo sapiens, UniProt Q13085).
T1 construct: gene ACACA
Nature of the assay: ACC1 inhibition IC50 (assay details not given; Supplementary Figure S1A). The class given is biochemical.

For the next assay, the target named is T2, ACC2 (Homo sapiens, UniProt O00763).
T2 construct: gene ACACB
Nature of the assay: ACC2 inhibition IC50 (assay details not given; Supplementary Figure S1A). The class given is biochemical.

T2 sequence (O00763 whole entry): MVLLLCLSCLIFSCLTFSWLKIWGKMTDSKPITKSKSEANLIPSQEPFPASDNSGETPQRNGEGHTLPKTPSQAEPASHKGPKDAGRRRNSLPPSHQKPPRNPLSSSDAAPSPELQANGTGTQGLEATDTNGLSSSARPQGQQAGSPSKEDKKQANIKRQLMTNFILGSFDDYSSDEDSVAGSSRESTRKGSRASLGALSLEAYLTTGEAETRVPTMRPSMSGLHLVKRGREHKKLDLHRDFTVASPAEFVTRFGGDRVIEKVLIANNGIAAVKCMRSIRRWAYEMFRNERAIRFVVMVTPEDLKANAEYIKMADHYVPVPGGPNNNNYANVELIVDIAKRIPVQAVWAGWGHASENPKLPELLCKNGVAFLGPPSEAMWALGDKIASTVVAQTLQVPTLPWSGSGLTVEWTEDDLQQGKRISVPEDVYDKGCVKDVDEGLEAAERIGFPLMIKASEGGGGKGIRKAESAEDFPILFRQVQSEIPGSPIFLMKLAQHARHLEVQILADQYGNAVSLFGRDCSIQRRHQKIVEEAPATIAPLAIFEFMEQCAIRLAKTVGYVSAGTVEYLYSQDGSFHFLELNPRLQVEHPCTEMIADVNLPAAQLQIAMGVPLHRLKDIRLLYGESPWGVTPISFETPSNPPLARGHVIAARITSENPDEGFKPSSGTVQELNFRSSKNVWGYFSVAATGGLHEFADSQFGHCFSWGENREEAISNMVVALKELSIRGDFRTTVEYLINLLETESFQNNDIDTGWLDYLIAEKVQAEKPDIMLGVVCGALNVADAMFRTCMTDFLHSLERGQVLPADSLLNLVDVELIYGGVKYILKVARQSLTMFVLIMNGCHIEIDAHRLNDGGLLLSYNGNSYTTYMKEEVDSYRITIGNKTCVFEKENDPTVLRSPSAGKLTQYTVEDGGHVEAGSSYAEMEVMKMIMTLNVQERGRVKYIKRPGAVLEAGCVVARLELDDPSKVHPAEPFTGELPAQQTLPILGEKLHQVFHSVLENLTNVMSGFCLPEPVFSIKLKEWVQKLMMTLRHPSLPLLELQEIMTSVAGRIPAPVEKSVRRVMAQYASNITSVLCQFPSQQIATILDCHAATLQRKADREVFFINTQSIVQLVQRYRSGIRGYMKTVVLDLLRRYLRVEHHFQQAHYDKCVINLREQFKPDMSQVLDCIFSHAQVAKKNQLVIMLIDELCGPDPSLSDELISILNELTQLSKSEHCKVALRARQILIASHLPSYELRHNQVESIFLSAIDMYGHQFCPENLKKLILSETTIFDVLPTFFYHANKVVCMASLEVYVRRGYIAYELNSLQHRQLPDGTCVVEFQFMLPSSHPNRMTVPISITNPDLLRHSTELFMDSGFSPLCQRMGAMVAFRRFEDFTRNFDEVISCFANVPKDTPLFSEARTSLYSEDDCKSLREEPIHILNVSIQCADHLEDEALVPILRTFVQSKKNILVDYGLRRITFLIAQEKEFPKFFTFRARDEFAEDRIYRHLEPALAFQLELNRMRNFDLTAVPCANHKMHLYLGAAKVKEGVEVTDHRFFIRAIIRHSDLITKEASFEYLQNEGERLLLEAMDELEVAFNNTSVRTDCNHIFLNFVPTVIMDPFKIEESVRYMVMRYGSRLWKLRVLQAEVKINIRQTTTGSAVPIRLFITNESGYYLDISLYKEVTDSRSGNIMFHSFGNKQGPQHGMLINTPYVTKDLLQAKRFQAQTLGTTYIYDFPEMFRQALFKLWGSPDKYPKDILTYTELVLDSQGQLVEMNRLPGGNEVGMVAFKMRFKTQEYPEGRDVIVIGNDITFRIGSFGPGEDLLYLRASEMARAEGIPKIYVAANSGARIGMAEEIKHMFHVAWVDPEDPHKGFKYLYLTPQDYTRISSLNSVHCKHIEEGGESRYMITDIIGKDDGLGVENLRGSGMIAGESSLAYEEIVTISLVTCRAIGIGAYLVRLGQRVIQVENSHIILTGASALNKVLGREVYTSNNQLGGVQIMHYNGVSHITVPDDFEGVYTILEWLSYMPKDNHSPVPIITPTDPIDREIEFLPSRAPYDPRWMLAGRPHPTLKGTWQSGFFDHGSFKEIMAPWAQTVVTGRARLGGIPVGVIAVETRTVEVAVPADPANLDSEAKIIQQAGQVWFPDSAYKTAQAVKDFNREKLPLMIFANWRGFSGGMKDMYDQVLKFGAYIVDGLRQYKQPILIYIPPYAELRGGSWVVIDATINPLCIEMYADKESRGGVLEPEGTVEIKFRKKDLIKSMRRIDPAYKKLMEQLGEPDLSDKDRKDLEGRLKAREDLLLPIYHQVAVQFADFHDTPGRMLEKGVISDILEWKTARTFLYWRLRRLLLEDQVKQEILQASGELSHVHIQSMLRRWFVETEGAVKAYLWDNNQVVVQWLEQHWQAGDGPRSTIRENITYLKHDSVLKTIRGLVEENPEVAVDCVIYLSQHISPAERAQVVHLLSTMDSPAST

On to BAY ACC002, for which the IC50 (as a rule, the midpoint of a concentration-inhibition curve) came out at 100 nM against ACC1 and 1400 nM against ACC2.

For BAY ACC001, the IC50 against ACC1 amounted to 280 nM; at ACC2, 2600 nM.
